Test results reported in ChEMBL document CHEMBL1126997, “Synthesis and antibacterial activity of two catechol-bearing penems” (1993).

Experiments:
Type in all cases: functional
Providencia stuartii = experiment: Compound was tested in vitro for antimicrobial activity against Providencia stuartii T90
Pseudomonas aeruginosa [1] = experiment: Compound was tested in vitro for antimicrobial activity against Pseudomonas aeruginosa NCTC 10662
Pseudomonas aeruginosa [2] = experiment: Compound was tested in vitro for antimicrobial activity against Pseudomonas aeruginosa K799
Escherichia coli [3] = experiment: Compound was tested in vitro for antimicrobial activity against Escherichia coli NCTC 10418
Proteus mirabilis = experiment: Compound was tested in vitro for antimicrobial activity against Proteus mirabilis 977
Escherichia coli [4] = experiment: Compound was tested in vitro for antimicrobial activity against Escherichia coli DC0
Pseudomonas aeruginosa [5] = experiment: Compound was tested in vitro for antimicrobial activity against Pseudomonas aeruginosa Dagleish: beta-lactamase producer
Escherichia coli [6] = experiment: Compound was tested in vitro for antimicrobial activity against Escherichia coli DC2: cell wall deficient mutant strain

Row | SMILES | MIC (Providencia stuartii) [µg/mL] | MIC (Pseudomonas aeruginosa [1]) [µg/mL] | MIC (Pseudomonas aeruginosa [2]) [µg/mL] | MIC (Escherichia coli [3]) [µg/mL] | MIC (Proteus mirabilis) [µg/mL] | MIC (Escherichia coli [4]) [µg/mL] | MIC (Pseudomonas aeruginosa [5]) [µg/mL] | MIC (Escherichia coli [6]) [µg/mL]
1 | C[C@@H](O)[C@H]1C(=O)N2C(C(=O)[O-])=C(CO)S[C@H]12.[Na+] | 16 | 64 | 64 | 8 | 16 | 8 | 64 | 8
2 | CC(=O)Oc1cccc(C(=O)OCC2=C(C(=O)[O-])N3C(=O)C[C@H]3S2)c1OC(C)=O.[Na+] | > 32 | 8 | > 32 | 8 | 16 | > 32 | > 32 | 0.5
3 | O=C([O-])C1=C(CO)S[C@@H]2CC(=O)N12.[Na+] | 32 | > 64 | > 64 | 16 | 32 | 32 | > 64 | 32
4 | C[C@@H](O)[C@H]1C(=O)N2C(C(=O)[O-])=C(COC(=O)c3ccc(O)c(O)c3)S[C@H]12.[Na+] | 32 | 32 | > 64 | 0.5 | 32 | 1 | > 64 | 0.12
